Data on six compounds can be found in patent US20240366542A1, “S[…] SEROTONIN RECEPTORS” (ATAI Therapeutics, Inc., priority 2022, published 2024).

pEC50: −log10 of the molar value.

Common to all, as to assay type: cell-based
Test [1] has as its target T1, 5-HT2A receptor (Homo sapiens, UniProt P28223). In words: Calcium mobilization (Ca++ flux) assay, agonist mode, 5-HT2A. The following applies: for 5-HT2A receptor, Ca++ Flux % activation @30 μM: 30 μM compound, relative to MAX control 0.1 μM serotonin; for pEC50: agonist mode, FLIPR calcium mobilization. As for the experimental part:
(§1) The Calcium No-Wash^PLUS assay monitors the activation of a GPCR via Gq secondary messenger signaling in a live cell, non-imaging assay format. Calcium mobilization in PathHunter® cell lines or other cell lines stably expressing Gq-coupled GPCRs is monitored using a calcium-sensitive dye that is loaded into cells. GPCR activation by a compound result in the release of calcium from intracellular stores and an increase in dye fluorescence that is measured in real-time. Cell lines expressing the GPCR of interest were expanded from freezer stocks according to standard procedures. Cells were seeded in a total volume of 20 μL into black-walled, clear-bottom, Poly-D-lysine coated 384-well microplates and incubated at 37° C. for the appropriate time prior to testing. Assays were performed in 1×Dye Loading Buffer consisting of 1× Dye, 1× Additive A and 2.5 mM Probenecid in HBSS/20 mM Hepes. Probenicid was prepared fresh. Cells were loaded with dye prior to testing. Media was aspirated from cells and replaced with 20 μL Dye Loading Buffer. Cells were incubated for 30-60 minutes at 37° C. For agonist determination, cells were incubated with sample to induce response. After dye loading, cells were removed from the incubator and 10 μL HBSS/20 mM Hepes was added. 3× vehicle was included in the buffer when performing agonist dose curves to define the EC80 for subsequent antagonist assays. Cells were incubated for 30 minutes at room temperature in the dark to equilibrate plate temperature. Intermediate dilution of sample stocks was performed to generate 4× sample in assay buffer. Compound agonist activity was measured on a FLIPR Tetra (MDS). Calcium mobilization was monitored for 2 minutes and 10 μL 4× sample in HBSS/20 mM Hepes was added to the cells 5 seconds into the assay. Compound activity data was analyzed using CBIS data analysis suite (ChemInnovation, CA). For agonist mode assays, percentage activity is calculated using the following formula:
% Activity=100%×(mean RFU of test sample−mean RFU of vehicle control)/(mean MAX RFU control ligand−mean RFU of vehicle control).
In these studies, the MAX RFU was generated by using 0.1 μM serotonin for the calcium mobilization assay.

The target in test [2] is T1, 5-HT2A receptor. Briefly: PathHunter β-Arrestin assay, agonist mode, 5-HT2A. As for the experimental part: The PathHunter® β-Arrestin assay monitors the activation of a GPCR in a homogenous, non-imaging assay format using a technology developed by DiscoverX called Enzyme Fragment Complementation (EFC) with β-galactosidase (β-Gal) as the functional reporter. […] EA is fused to β-Arrestin and PK is fused to the GPCR of interest. When the GPCR is activated and β-Arrestin is recruited to the receptor, ED and EA complementation occurs, restoring β-Gal activity which is measured using chemiluminescent PathHunter® Detection Reagents. PathHunter cell lines (DiscoveRx Eurofins) were expanded from freezer stocks according to standard procedures. Cells were seeded in a total volume of 20 μL into white walled, 384-well microplates and incubated at 37° C. for the appropriate time prior to testing. For agonist determination, cells were incubated with sample to induce response. Intermediate dilution of sample stocks was performed to generate 5× sample in assay buffer. 5 μL of 5× sample was added to cells and incubated at 37° C. or room temperature for 90 to 180 minutes. Vehicle concentration was 1%. β-Arrestin assay signal was generated through a single addition of 12.5 or 15 μL (50% v/v) of PathHunter Detection reagent cocktail, followed by a one-hour incubation at room temperature. Microplates were read following signal generation with a PerkinElmer Envision™ instrument for chemiluminescent signal detection. Compound activity was analyzed using CBIS data analysis suite (ChemInnovation, CA). For agonist mode assays, percentage activity was calculated using the following formula:
% Activity=100%×(mean RLU of test sample−mean RLU of vehicle control)/(mean MAX control ligand−mean RLU of vehicle control).
In these studies, the MAX control ligand response was generated using 1-10 μM serotonin.

In a further test the target is T2, 5-HT2C receptor (Homo sapiens, UniProt P28335).
T2 sequence (P28335 33-458): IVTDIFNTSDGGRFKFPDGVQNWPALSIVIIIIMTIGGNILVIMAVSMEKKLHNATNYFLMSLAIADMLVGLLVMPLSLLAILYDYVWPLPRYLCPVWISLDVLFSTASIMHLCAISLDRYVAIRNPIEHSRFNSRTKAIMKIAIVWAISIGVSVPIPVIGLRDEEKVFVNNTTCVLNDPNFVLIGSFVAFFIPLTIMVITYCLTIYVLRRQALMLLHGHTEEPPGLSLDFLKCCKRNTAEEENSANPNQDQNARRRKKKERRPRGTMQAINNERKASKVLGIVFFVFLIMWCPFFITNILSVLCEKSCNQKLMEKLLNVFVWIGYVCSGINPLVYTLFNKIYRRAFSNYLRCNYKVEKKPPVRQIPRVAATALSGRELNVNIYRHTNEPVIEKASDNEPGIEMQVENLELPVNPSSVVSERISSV
Briefly: Calcium mobilization (Ca++ flux) assay, agonist mode, 5-HT2C. As for the experimental part:
as §1, with “Media was aspirated from cells and replaced with 20 μL Dye Loading Buffer. Cells were incubated for 30-60 minutes at 37° C. For agonist determination, cells were incubated with sample to induce response. After dye loading, cells were removed from the incubator and 10 μL HBSS/20 mM Hepes was added. 3× vehicle was included in the buffer when performing agonist dose curves to define the EC80 for subsequent antagonist assays. Cells were incubated for 30 minutes at room temperature in the dark to equilibrate plate temperature. Intermediate dilution of sample stocks was performed to generate 4× sample in assay buffer.” left out, “formula: […]” for “formula:”
Background: Calcium assays in cells follow changes in intracellular calcium, usually with a dye or a luminescent sensor.

The target of another test is 5-HT2B receptor (Homo sapiens, UniProt P41595). Briefly: Calcium mobilization (Ca++ flux) assay, agonist mode, 5-HT2B. As for the experimental part:
as §1, with “Media was aspirated from cells and replaced with 20 μL Dye Loading Buffer. Cells were incubated for 30-60 minutes at 37° C. For agonist determination, cells were incubated with sample to induce response. After dye loading, cells were removed from the incubator and 10 μL HBSS/20 mM Hepes was added. 3× vehicle was included in the buffer when performing agonist dose curves to define the EC80 for subsequent antagonist assays. Cells were incubated for 30 minutes at room temperature in the dark to equilibrate plate temperature. Intermediate dilution of sample stocks was performed to generate 4× sample in assay buffer.” left out, “formula: […]” for “formula:”

T1 sequence (P28223 whole entry): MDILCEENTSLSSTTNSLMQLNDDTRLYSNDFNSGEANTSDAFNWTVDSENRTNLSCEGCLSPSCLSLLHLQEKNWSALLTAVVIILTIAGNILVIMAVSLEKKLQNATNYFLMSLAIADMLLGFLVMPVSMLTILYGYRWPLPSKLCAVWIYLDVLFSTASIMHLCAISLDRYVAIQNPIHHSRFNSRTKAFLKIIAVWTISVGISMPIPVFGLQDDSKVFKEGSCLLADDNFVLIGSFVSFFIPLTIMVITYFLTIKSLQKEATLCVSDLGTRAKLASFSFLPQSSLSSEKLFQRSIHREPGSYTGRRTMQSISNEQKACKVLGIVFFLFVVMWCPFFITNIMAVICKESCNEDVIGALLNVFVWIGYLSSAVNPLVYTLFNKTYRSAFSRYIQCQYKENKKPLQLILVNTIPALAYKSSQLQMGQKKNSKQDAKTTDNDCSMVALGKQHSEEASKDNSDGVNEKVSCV
Chain of 5-HT2B receptor (P41595 whole entry): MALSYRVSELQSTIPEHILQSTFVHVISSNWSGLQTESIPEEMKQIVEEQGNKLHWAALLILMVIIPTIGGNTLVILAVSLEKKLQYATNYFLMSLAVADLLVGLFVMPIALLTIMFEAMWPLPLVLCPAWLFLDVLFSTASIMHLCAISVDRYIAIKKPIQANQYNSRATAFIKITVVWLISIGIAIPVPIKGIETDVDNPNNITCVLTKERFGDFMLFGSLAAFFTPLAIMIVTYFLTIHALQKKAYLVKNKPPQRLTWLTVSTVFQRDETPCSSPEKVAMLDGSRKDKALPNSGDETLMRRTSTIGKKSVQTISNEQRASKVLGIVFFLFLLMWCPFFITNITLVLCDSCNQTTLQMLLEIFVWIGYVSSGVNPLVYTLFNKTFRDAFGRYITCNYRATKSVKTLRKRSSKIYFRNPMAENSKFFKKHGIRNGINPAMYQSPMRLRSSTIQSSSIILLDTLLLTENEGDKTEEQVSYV

With `COc1cc(S(C)(=N)=O)c(OC)cc1CCNCc1cc(C)cc(Cl)c1` (single isomer, unassigned) [Compound 2, (4-(2-((3-chloro-5-methylbenzyl)amino)ethyl)-2,5-dimethoxyphenyl)(imino)(methyl)-λ^6-sulfanone], on 5-HT2A receptor [1], the “5-HT2A receptor, Ca++ Flux % activation @30 μM” value is reported as “NA/57%”.
What is called pEC50 is the negative decadic logarithm of the EC50, by convention in mol/L. Take `COc1cc(S(C)(=N)=O)c(OC)cc1CCNCc1cc(C)cc(Cl)c1` (single isomer, unassigned) [Compound 3, (4-(2-((3-chloro-5-methylbenzyl)amino)ethyl)-2,5-dimethoxyphenyl)(imino)(methyl)-λ^6-sulfanone]: the pEC50 at 5-HT2A receptor [2] is 7.87; at 5-HT2C receptor, 5.83; on 5-HT2A receptor [1], 8.62; at 5-HT2B receptor, less than 6.00. The “5-HT2A receptor, Ca++ Flux % activation @30 μM” value on 5-HT2A receptor [1] was 78%.
Turning to `COc1cc(S(C)(=N)=O)c(OC)cc1CCNCc1cc(C)cc(Cl)c1` (stereo not shown) [Compound 1, (4-(2-((3-chloro-5-methylbenzyl)amino)ethyl)-2,5-dimethoxyphenyl)(imino)(methyl)-λ^6-sulfanone], the values for the pEC50 on 5-HT2A receptor [2], on 5-HT2A receptor [1] and on 5-HT2B receptor were 7.60, 8.39 and less than 6.00, respectively. The “5-HT2A receptor, Ca++ Flux % activation @30 μM” value at 5-HT2A receptor [1] came out at 102%.
On to `COc1cc(S(C)(=N)=O)c(OC)cc1CCNCc1cc(C)cc(Cl)n1` (stereo not shown) [Compound 4, (4-(2-(((6-chloro-4-methylpyridin-2-yl)methyl)amino)ethyl)-2,5-dimethoxyphenyl)(imino)(methyl)-λ^6-sulfanone], for which the “5-HT2A receptor, Ca++ Flux % activation @30 μM” value on 5-HT2A receptor [1] was “NA/67%”.
For the compound `COc1cc(S(C)(=N)=O)c(OC)cc1CCNCc1ccccc1OC` (stereo not shown) [Compound 5, (2,5-dimethoxy-4-(2-((2-methoxybenzyl)amino)ethyl)phenyl)(imino) (methyl)-λ^6-sulfanone], the results for the pEC50 at 5-HT2A receptor [2], on 5-HT2C receptor and on 5-HT2A receptor [1] were 8.49, 8.44 and 8.77, respectively. Moreover, on 5-HT2A receptor [1], the “5-HT2A receptor, Ca++ Flux % activation @30 μM” value came out at 111%.
For `COc1cc(S(C)(=N)=O)c(OC)cc1CCNCc1ccccc1O` (stereo not shown) [Compound 6, (4-(2-((2-hydroxybenzyl)amino)ethyl)-2,5-dimethoxyphenyl)(imino)(methyl)-λ^6-sulfanone], the “5-HT2A receptor, Ca++ Flux % activation @30 μM” value at 5-HT2A receptor [1] is recorded as “NA/ 82%”.
